This note sets out measurements from EP0571593B1, “NEW NON IONIC IODIZED AGENTS FOR X-RAY CONTRASTING, METHOD FOR PREPARING THEM AND GALENICAL COMPOSITIONS CONTAINING THEM” (CENTRO INVESTIGACION JUSTESA IMAGEN S.A., priority 1991, dated 1993).

The structures appear in SMILES notation.

Holding throughout (format): physicochemical
Data set [1] can be described thus: Osmolality of aqueous solutions. The settings on record: 300mg I/ml.
Data set [2] can be described thus: Viscosity of aqueous solutions. The settings on record: 30°C, 300mg I/ml.
Another data set can be described thus: Iodine content.

Take `COCC(=O)Nc1c(I)c(C(=O)NCC(O)CO)c(I)c(C(=O)N(CCO)CC(=O)Nc2c(I)c(C(=O)NC(CO)C(O)CO)c(I)c(C(=O)NC(CO)C(O)CO)c2I)c1I` (stereo not shown) [EXAMPLE 22, N,N'-bis-(1-hydroxymethyl-2,3-dihydroxypropyl)-5-{3-[N-(2,3-dihydroxypropyl)carbamoyl]-5-methoxyacetamido-2,4,6-triiodobenzoyl-N-(2-hydroxyethyl)aminoacetamido}-2,4,6-triiodo isophthalamide]: in data set [1], the “Osmolality mosm/kg at 300mg I/ml” value came to 118 mosm/kg. Moreover, the “Viscosity mPa s (30°C) at 300mg I/ml” value in data set [2] is 10,0 mPa s. In the data set “Iodine content”, the “% Iodine” value turned out to be 49%.
The corresponding values for `COCC(=O)Nc1c(I)c(C(=O)NCC(=O)N(C)c2c(I)c(C(=O)NC(CO)C(O)CO)c(I)c(C(=O)NC(CO)C(O)CO)c2I)c(I)c(C(=O)NCC(O)CO)c1I` (stereo not shown) [EXAMPLE 4, N,N'-bis-(1-hydroxymethyl-2,3-dihydroxypropyl)-5-{3-(N-(2,3-dihydroxypropyl)carbamoyl]-5-methoxyacetamido-2,4,6-triiodobenzoylaminoacetyl-N-methylamino}-2,4,6-triiodo isophthalamide] are 289 mosm/kg, 9,4 mPa s and 50%.
For `O=C(NCCO)c1c(I)c(C(=O)NCCO)c(I)c(N(CCO)C(=O)CN(CCO)C(=O)c2c(I)c(C(=O)NCC(O)CO)c(I)c(N(CCO)C(=O)CO)c2I)c1I` (stereo not shown) [EXAMPLE 16, N,N'-bis-(2-hydroxyethyl)-5-{3-[N-(2,3-dihydroxypropyl)-carbamoyl]-5-hydroxyacetyl-N-(2-hydroxyethyl)amino-2,4,6-tri-iodobenzoyl-N-(2-hydroxyethyl)amino-acetyl-N-(2-hydroxyethyl)amino}-2,4,6-triiodoisophthalamide], in that order: 131 mosm/kg, 7,6 mPa s and 50,5%.
Regarding `CC(=O)Nc1c(I)c(C(=O)NCC(O)CO)c(I)c(C(=O)N(C)CC(=O)N(C)c2c(I)c(C(=O)NC(CO)C(O)CO)c(I)c(C(=O)NC(CO)C(O)CO)c2I)c1I` (stereo not shown) [EXAMPLE 38, N,N'-bis-(1-hydroxymethyl-2,3-dihydroxypropyl)-5-{3-[N-(2,3-dihydroxypropyl]carbamoyl]-5-acetamido-2,4,6-triiodobenzoyl -N-methylacetyl-N-methylamino}-2,4,6-triiodoisophthalamide], in data set [1], the “Osmolality mosm/kg at 300mg I/ml” value amounted to 155 mosm/kg. Further, in data set [2], the “Viscosity mPa s (30°C) at 300mg I/ml” value is recorded as 9,1 mPa s. In addition, in the data set “Iodine content”, the “% Iodine” value is given as 50,6%.
For the compound `CN(C(=O)CNC(=O)c1c(I)c(NC(=O)CO)c(I)c(C(=O)NCC(O)CO)c1I)c1c(I)c(C(=O)NC(CO)C(O)CO)c(I)c(C(=O)NC(CO)C(O)CO)c1I` (stereo not shown) [EXAMPLE 3, N,N'-bis-(1-hydroxymethyl-2,3-dihydroxyprogyl)-5-{3[N-(2,3-dihydroxypropyl)carbamoyl]-5-hydroxyacetamido-2,4,6-triiodobenzoylaminoacetyl-N-methylamino}-2,4,6-triiodoisophthalamide], the “Osmolality mosm/kg at 300mg I/ml” value in data set [1] is recorded as 184 mosm/kg. In addition, the “Viscosity mPa s (30°C) at 300mg I/ml” value in data set [2] was 9,3 mPa s. In addition, in “Iodine content”, the “% Iodine” value is reported as 50,5%.
Take `O=C(CO)Nc1c(I)c(C(=O)NCC(=O)Nc2c(I)c(C(=O)NCC(O)CO)c(I)c(C(=O)NCC(O)CO)c2I)c(I)c(C(=O)NCC(O)CO)c1I` (stereo not shown) [EXAMPLE 18]: the “% Iodine” value in the data set “Iodine content” is on record as 53,1%.
Take `CN(CC(=O)N(C)c1c(I)c(C(=O)N(CCO)CCO)c(I)c(C(=O)N(CCO)CCO)c1I)C(=O)c1c(I)c(NC(=O)CO)c(I)c(C(=O)NCC(O)CO)c1I` (stereo not shown) [EXAMPLE 29, N,N,N',N'-tetrakis-(2-hydroxyethyl)-5-{3-[N-(2,3-dihydroxypropyl)carbamoyl]-5-hydroxyacetamido-2,4,6-triiodobenzoyl-N-methylaminoacetyl-N-methylamino}-2,4,6-triiodoisophthalamide]: the “% Iodine” value in “Iodine content” is reported as 51,1%.
Still for that read-out and setting: the same measure for `O=C(CO)Nc1c(I)c(C(=O)NCC(=O)Nc2c(I)c(C(=O)NC(CO)C(O)CO)c(I)c(C(=O)NC(CO)C(O)CO)c2I)c(I)c(C(=O)NCC(O)CO)c1I` (stereo not shown) [EXAMPLE 19, N,N'-bis-(1-hydroxymethyl-2,3-dihydroxypropyl)-5-{3-[N-(2,3-dihydroxypropyl)carbamoyl]-5-hydroxyacetamido-2,4,6-triiodobenzoylaminoacetamido}-2,4,6-triiodoisophthalamide]: 51%.
For the compound `COCC(=O)Nc1c(I)c(C(=O)NCC(=O)Nc2c(I)c(C(=O)NC(CO)C(O)CO)c(I)c(C(=O)NC(CO)C(O)CO)c2I)c(I)c(C(=O)NC(CO)C(O)CO)c1I` (stereo not shown) [EXAMPLE 7, N,N'-bis-(1-hydroxymethyl-2,3-dihydroxypropyl)-5-{3-[N-(1-hydroxymethyl-2,3-dihydroxypropyl)carbamoyl]-5-methoxyacetamido-2,4,6-triiodobenzoylaminoacetamido}-2,4,6-triiodo isophthalamide], in data set [1], the “Osmolality mosm/kg at 300mg I/ml” value came to 147 mosm/kg. Besides, the “Viscosity mPa s (30°C) at 300mg I/ml” value in data set [2] is recorded as 10,5 mPa s. In addition, the “% Iodine” value in the data set “Iodine content” is recorded as 49,5%.
On to `COCC(=O)Nc1c(I)c(C(=O)NCC(=O)Nc2c(I)c(C(=O)NC(CO)C(O)CO)c(I)c(C(=O)NC(CO)C(O)CO)c2I)c(I)c(C(=O)NCC(O)CO)c1I` (stereo not shown) [EXAMPLE 20, N,N'-bis-(1-hydroxymethyl-2,3-dihydroxypropyl)-5-{3-[N-(2,3-dihydroxypropyl)carbamoyl]-5-methoxyacetamido-2,4,6-triiodobenzoylaminoacetamido}-2,4,6-triiodoisolphthalamide], for which, in the data set “Iodine content”, the “% Iodine” value was 50,5%.
As to `COCC(=O)Nc1c(I)c(C(=O)NCC(=O)N(C)c2c(I)c(C(=O)NCC(O)CO)c(I)c(C(=O)NCC(O)CO)c2I)c(I)c(C(=O)NCC(O)CO)c1I` (stereo not shown) [EXAMPLE 28, N,N'-bis-(2,3-dihydroxypropyl)-5-{3-[N-(2,3-dihydroxypropyl)carbamoyl]-5-methoxyacetamido-2,4,6-triiodobenzoylaminoacetyl-N-methylamino}-2,4,6-triiodoisophthalamide], in the data set “Iodine content”, the “% Iodine” value is recorded as 51,6%.
The same measure, in the same setting: the same measure for `COCC(=O)N(CCO)c1c(I)c(C(=O)NCC(O)CO)c(I)c(C(=O)N(CCO)CC(=O)N(CCO)c2c(I)c(C(=O)NCC(O)CO)c(I)c(C(=O)NCC(O)CO)c2I)c1I` (stereo not shown) [EXAMPLE 33, N,N'-bis-(2,3-dihydroxypropyl)-5-{3-[N-(2,3-dihydroxypropyl)carbamoyl]-5-methoxyacetyl-N-(2-hydroxyethyl)amino-2,4,6-triiodobenzoyl-N-(2-hydroxyethyl)aminoacetyl-N-(2-hydroxyethyl)amino)-2,4,6-triiodoisophthalamide]: 48,2%; for `O=C(NCC(=O)N(CCO)c1c(I)c(C(=O)NCC(O)CO)c(I)c(C(=O)NCC(O)CO)c1I)c1c(I)c(C(=O)NCC(O)CO)c(I)c(N(CCO)C(=O)CO)c1I` (stereo not shown) [EXAMPLE 34, N,N'-bis-(2,3-dihydroxypropyl)-5-{3-[N-(2,3-dihydroxypropyl)carbamoyl]-5-hydroxyacetyl-N-(2-hydroxyethyl)amino-2,4,6-triiodobenzoylaminoacetyl-N-(2-hydroxyethyl)amino}-2,4,6-triiodoisophthalamide]: 50%.
The same measure, in the same setting: the same measure for `COCC(=O)Nc1c(I)c(C(=O)NCC(O)CO)c(I)c(C(=O)N(C)CC(=O)N(C)c2c(I)c(C(=O)N(CCO)CCO)c(I)c(C(=O)N(CCO)CCO)c2I)c1I` (stereo not shown) [EXAMPLE 30, N,N,N',N', -tetrakis-(2-hydroxyethyl)-5-{3-[N-(2,3-dihydroxypropyl)carbamoyl]-5-methoxyacetamido-2,4,6-triiodobenzoyl-N -methylaminoacetyl-N-methylamino}-2,4,6-triiodo-isophthalamide]: 50,6%; for `COCC(=O)Nc1c(I)c(C(=O)NCC(=O)N(C)c2c(I)c(C(=O)N(C)CC(O)CO)c(I)c(C(=O)N(C)CC(O)CO)c2I)c(I)c(C(=O)NCC(O)CO)c1I` (stereo not shown) [EXAMPLE 27, N,N'-bis-(2,3-dihydroxypropyl)-N,N'-dimethyl-5-{3-[N-(2,3-dihydroxypropyl)carbamoyl]-5-methoxyacetamido-2,4,6-triiodobenzoylaminoacetyl-N-methylamino}-2,4,6-triiodo isophthalamide]: 51,1%.
On to `COCC(=O)Nc1c(I)c(C(=O)NCC(O)CO)c(I)c(C(=O)N(C)CC(=O)Nc2c(I)c(C(=O)NC(CO)C(O)CO)c(I)c(C(=O)NC(CO)C(O)CO)c2I)c1I` (stereo not shown) [EXAMPLE 21, N,N'-bis-(1-hydroxymethyl-2,3-dihydroxypropyl)-5-{3-[N-(2,3-dihydroxypropyl)carbomoyl]-5-methoxyacetamido-2,4,6-triiodo-benzoyl-N-methylaminoacetamido}-2,4,6-triiodoisophthalamide], for which the “% Iodine” value in the data set “Iodine content” amounted to 50%.
On the same count and under the same terms, the same measure for `COCC(=O)Nc1c(I)c(C(=O)NCC(=O)Nc2c(I)c(C(=O)N(CCO)CCO)c(I)c(C(=O)N(CCO)CCO)c2I)c(I)c(C(=O)NCC(O)CO)c1I` (stereo not shown) [EXAMPLE 31, N,N,N',N'-tetrakis(2-hydroxyethyl)-5-{3-[N(2,3-dihydroxypropyl)carbamoyl]-5-methoxyacetamido-2,4,6-triiodobenzoylaminoacetamido}-2,4,6-triiodoisophthalamide]: 51,6%; for `O=C(CN(CCO)C(=O)c1c(I)c(NC(=O)CO)c(I)c(C(=O)NCC(O)CO)c1I)Nc1c(I)c(C(=O)NCCO)c(I)c(C(=O)NCCO)c1I` (stereo not shown) [EXAMPLE 14, N,N'-bis-(2-hydroxyethyl)-5-{3-[N-(2,3-dihydroxypropyl)-carbamoyl]-5-hydroxyacetamido-2,4,6-triiodobenzoyl-N-(2, hydroxyethyl)aminoacetamido}-2,4,6-triiodoisophthalamide]: 53,7%; for `COCC(=O)Nc1c(I)c(C(=O)NCC(O)CO)c(I)c(C(=O)N(CCO)CC(=O)Nc2c(I)c(C(=O)NCCO)c(I)c(C(=O)NCCO)c2I)c1I` (stereo not shown) [EXAMPLE 17, N,N'-bis-(2-hydroxyethyl)-5-{3-[N-(2,3-dihydroxypropyl)carbamoyl]-5-methoxyacetamido-2,4,6-triodobenzoyl-N-(2-hydroxyethyl)aminoacetamido}-2,4,6-triiodoisophthalamide]: 53,2%.
